Data as given in ChEMBL document CHEMBL5375989, “Pioneering 4,11-Dioxo-4,11-dihydro-1H-anthra[2,3-d]imidazol-3-ium Compounds as Promising Survivin Inhibitors by Targeting ILF3/NF110 for Cancer Therapy” (J Med Chem, 2023).
Calls of active or inactive are those of the source. The calls are words filed in the database; no cut-off is given here.

Tests used:
TE-1 = assay: cells; settings: Homo sapiens, TE-1, 48 h
Description: Antiproliferative activity against human TE-1 cells assessed as inhibition of cell growth measured after 48 hrs by MTT assay

[1] = Selectivity index, ratio of IC50 for mouse L929 cells to IC50 for human A549 cells; format: toxicity; settings: for selectivity ratio: L929 cells and A549 cells, read-out: Ratio IC50
[2] = (§1) Antiproliferative activity against mouse L929 cells assessed as inhibition of cell growth measured after 48 hrs by MTT assay; format: toxicity, cell-based; settings: mouse, L929 cells
A549 [3] = assay: cells; settings: Homo sapiens, A549, 48 h
Description: (§2) Antiproliferative activity against human A549 cells assessed as inhibition of cell growth measured after 48 hrs by MTT assay

5637 = assay: cells; settings: Homo sapiens, 5637, 48 h
Description: Antiproliferative activity against human 5637 cells assessed as inhibition of cell growth measured after 48 hrs by MTT assay

L929 = assay: as §1; format: toxicity, cell-based; settings: l929
A549 [4] = test system: A549
Description: as §2

A549 [5] = assay: Induction of apoptosis in human A549 cells assessed as increase in caspase-3 cleavage at low concentration measured after 48 hrs by Western blot analysis; format: functional, cell-based
A549 [6] = assay: Induction of autophagy in human A549 cells assessed as formation of GFP-LC3 punctate by confocal fluorescence microscopy analysis; format: functional, cell-based; settings: dose 0.01-0.1 µM
A549 [7] = assay: Antitumor activity against human A549 cells xenografted in BALB/c nude mouse assessed as increase in apoptosis at 2 mg/kg measured after 14 days by tunel staining based analysis; format: functional, organism-based; settings: time 14.0 day
A549 [8] = assay: Induction of DNA damage in human A549 cells measured after 36 hrs by comet assay; format: functional, cell-based; settings: dose 0.04-0.1 µM
A549 [9] = assay: Induction of DNA damage in human A549 cells assessed as gammaH2AX accumulation at 0.04 uM by Western blot analysis; format: functional, cell-based
A549 [10] = assay: Induction of autophagy in human A549 cells assessed as increase in LC3II amount by Western blot analysis; format: functional, cell-based; settings: dose 0.04-0.1 µM
A549 [11] = assay: Induction of apoptosis in human A549 cells assessed as inhibition of Bcl-2 level measured after 48 hrs by Western blot analysis; format: functional, cell-based; settings: dose 0.01-0.1 µM
A549 [12] = assay: Antitumor activity against human A549 cells xenografted in BALB/c nude mouse assessed as inhibition of tumor growth at 2 mg/kg, sc administered every 2 days for 14 days; format: functional, organism-based; settings: time 14.0 day
A549 [13] = assay: Antitumor activity against human A549 cells xenografted in BALB/c nude mouse assessed as decrease in tumor cell proliferation at 2 to 4 mg/kg measured after 14 days by Ki67 staining based analysis; format: functional, organism-based; settings: dose 2-4 mg/kg, time 14.0 day
[14] = molecular target: Baculoviral IAP repeat-containing protein 5 (Homo sapiens) (UniProt O15392); assay: Inhibition of Survivin (unknown origin) expressed in HEK293T cells in presence of ILF3/NF110 by Dual luciferase reporter assay; format: cell-based; settings: dose <= 2000.0 nM
A549 [15] = assay: Inhibition of survivin mRNA expression in human A549 cells by Q-PCR analysis; format: functional, cell-based; settings: dose 0.01-0.1 µM
A549 [16] = assay: Inhibition of colony formation in human A549 cells assessed as suppression of colony formation at 1 nM replaced with fresh medium for every 72 hrs and measured for 15 days by crystal violet staining based assay; format: functional, cell-based; settings: time 15.0 day
A549 [17] = assay: Antitumor activity against human A549 cells xenografted in BALB/c nude mouse assessed as decrease in tumor cell proliferation at 2 to 4 mg/kg measured after 14 days by PCNA staining based analysis; format: functional, organism-based; settings: dose 2-4 mg/kg, time 14.0 day
A549 [18] = assay: Induction of apoptosis in human A549 cells assessed as upregulation of bax level measured after 48 hrs by Western blot analysis; format: functional, cell-based; settings: dose 0.01-0.1 µM
A549 [19] = assay: Antitumor activity against human A549 cells xenografted in BALB/c nude mouse assessed as appearance of various size of tumor necrosis at 2 mg/kg measured after 14 days by H and E staining based analysis; format: functional, organism-based; settings: time 14.0 day
A549 [20] = assay: Induction of apoptosis in survivin silenced human A549 cells assessed as decrease in apoptotic rate at 0.04 uM measured after 48 hrs by AnnexinV-FITC/PI staining based flow cytometry; format: functional, cell-based
A549 [21] = assay: Antitumor activity against human A549 cells xenografted in BALB/c nude mouse assessed as increase in apoptosis at 2 to 4 mg/kg measured after 14 days by tunel staining based analysis; format: functional, organism-based; settings: dose 2-4 mg/kg, time 14.0 day
A549 [22] = assay: Induction of DNA damage in human A549 cells assessed as increase in DNA percentage in tail at low concentration measured after 36 hrs by comet assay; format: functional, cell-based
A549 [23] = assay: Induction of oxidative stress in human A549 cells assessed as upregulation of ROS level by DCFH-DA staining based analysis; format: functional, cell-based; settings: dose 0.04-0.1 µM
A549 [24] = assay: Antitumor activity against human A549 cells xenografted in BALB/c nude mouse assessed as appearance of tumor necrosis at 4 mg/kg measured after 14 days by H and E staining based analysis; format: functional, organism-based; settings: time 14.0 day
A549 [25] = assay: Inhibition of survivin protein expression in human A549 cells by Western blot analysis; format: functional, cell-based; settings: dose 0.004 µM
ASPC1 = assay: Antiproliferative activity against human ASPC1 cells assessed as inhibition of cell growth measured after 48 hrs by MTT assay; format: functional, cell-based; settings: Homo sapiens, ASPC1, 48 h
A549 [26] = assay: Induction of apoptosis in human A549 cells assessed as early apoptotic cells at 0.1 uM measured after 48 hrs by annexin V and PI staining based flow cytometry analysis (reference value: 0.71%); format: functional
A549 [27] = assay: Induction of apoptosis in human A549 cells assessed as viable cells at 0.25 uM measured after 48 hrs by annexin V and PI staining based flow cytometry analysis (reference value: 93.3%); format: functional; settings: Homo sapiens, A549, 48 h, read-out: Activity
A549 [28] = assay: Induction of apoptosis in human A549 cells assessed as early apoptotic cells at 0.25 uM measured after 48 hrs by annexin V and PI staining based flow cytometry analysis (reference value: 0.71%); format: functional
HepG2 = assay: Antiproliferative activity against human HepG2 cells assessed as inhibition of cell growth measured after 48 hrs by MTT assay; format: functional, cell-based; settings: Homo sapiens, HepG2, 48 h
NCI-H1299 = assay: Antiproliferative activity against human NCI-H1299 cells assessed as inhibition of cell growth measured after 48 hrs by MTT assay; format: functional, cell-based; settings: Homo sapiens, NCI-H1299, 48 h
A549 [29] = assay: Induction of apoptosis in human A549 cells assessed as late apoptotic cells at 0.04 uM measured after 48 hrs by annexin V and PI staining based flow cytometry analysis (reference value: 4.70%); format: functional
143B = assay: Antiproliferative activity against human 143B cells assessed as inhibition of cell growth measured after 48 hrs by MTT assay; format: functional, cell-based; settings: Homo sapiens, 143B, 48 h
A549 [30] = assay: Antitumor activity against human A549 cells xenografted in BALB/c nude mouse assessed as decrease in tumor cell proliferation at 2 mg/kg measured after 14 days by Ki67 staining based analysis; format: functional, organism-based; settings: time 14.0 day
A549 [31] = assay: Induction of apoptosis in human A549 cells assessed as late apoptotic cells at 0.1 uM measured after 48 hrs by annexin V and PI staining based flow cytometry analysis (reference value: 4.70%); format: functional
A549 [32] = assay: Induction of apoptosis in human A549 cells assessed as necrotic cells at 0.04 uM measured after 48 hrs by annexin V and PI staining based flow cytometry analysis (reference value: 1.47%); format: functional
A549 [33] = assay: Antitumor activity against human A549 cells xenografted in BALB/c nude mouse assessed as decrease in tumor cell proliferation at 2 mg/kg measured after 14 days by PCNA staining based analysis; format: functional, organism-based; settings: time 14.0 day
MCF7 = assay: Antiproliferative activity against human MCF7 cells assessed as inhibition of cell growth measured after 48 hrs by MTT assay; format: functional, cell-based; settings: MCF7, 48 h
A549 [34] = assay: Induction of apoptosis in human A549 cells assessed as viable cells at 0.04 uM measured after 48 hrs by annexin V and PI staining based flow cytometry analysis (reference value: 93.3%); format: functional; settings: Homo sapiens, A549, 48 h, read-out: Activity
BXPC-3 = assay: Antiproliferative activity against human BXPC-3 cells assessed as inhibition of cell growth measured after 48 hrs by MTT assay; format: functional, cell-based; settings: Homo sapiens, BXPC-3, 48 h
HeLa = assay: Antiproliferative activity against human HeLa cells assessed as inhibition of cell growth measured after 48 hrs by MTT assay; format: functional, cell-based; settings: Homo sapiens, HeLa, 48 h
A549 [35] = assay: Induction of apoptosis in human A549 cells assessed as necrotic cells at 0.1 uM measured after 48 hrs by annexin V and PI staining based flow cytometry analysis (reference value: 1.47%); format: functional
PANC-1 = assay: Antiproliferative activity against human PANC-1 cells assessed as inhibition of cell growth measured after 48 hrs by MTT assay; format: functional, cell-based; settings: Homo sapiens, PANC-1, 48 h
A549 [36] = assay: Induction of apoptosis in human A549 cells assessed as viable cells at 0.1 uM measured after 48 hrs by annexin V and PI staining based flow cytometry analysis (reference value: 93.3%); format: functional; settings: Homo sapiens, A549, 48 h, read-out: Activity
A549 [37] = assay: Induction of apoptosis in human A549 cells assessed as necrotic cells at 0.25 uM measured after 48 hrs by annexin V and PI staining based flow cytometry analysis (reference value: 1.47%); format: functional
A549 [38] = assay: Induction of apoptosis in human A549 cells assessed as late apoptotic cells at 0.25 uM measured after 48 hrs by annexin V and PI staining based flow cytometry analysis (reference value: 4.70%); format: functional
NCI-H460 = assay: Antiproliferative activity against human NCI-H460 cells assessed as inhibition of cell growth measured after 48 hrs by MTT assay; format: functional, cell-based; settings: Homo sapiens, NCI-H460, 48 h
A549 [39] = assay: Induction of apoptosis in human A549 cells assessed as early apoptotic cells at 0.04 uM measured after 48 hrs by annexin V and PI staining based flow cytometry analysis (reference value: 0.71%); format: functional

Sequence of Baculoviral IAP repeat-containing protein 5 (Homo sapiens) (O15392 whole entry): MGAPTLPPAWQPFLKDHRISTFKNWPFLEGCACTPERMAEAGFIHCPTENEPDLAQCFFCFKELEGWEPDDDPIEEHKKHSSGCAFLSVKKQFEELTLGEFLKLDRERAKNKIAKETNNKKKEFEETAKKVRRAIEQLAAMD

## Cc1n(C)c2c([n+]1C)C(=O)c1cc3ccccc3cc1C2=O
TE-1
  IC50: 50 nM
[1]
  selectivity ratio: 302
[2]
  IC50 at 48 h: 15100 nM
A549 [3]
  IC50: 50 nM
5637
  IC50: 420 nM

## Cc1ccc(S(=O)(=O)[O-])cc1.Cn1c[n+](C)c2c1C(=O)c1ccccc1C2=O
[1]
  Ratio IC50: 1.9
L929
  IC50: 540 nM
A549 [4]
  IC50: 280 nM

## Cn1c[n+](C)c2c1C(=O)c1cc3ccccc3cc1C2=O
A549 [5]
  Activity: Active
A549 [6]
  Activity: Dose-Dependent Effect
A549 [7]
  Activity: Active
A549 [8]
  Activity: Dose-Dependent Effect
A549 [9]
  Activity: Active
A549 [10]
  Activity: Dose-Dependent Effect
A549 [11]
  Activity: Dose-Dependent Effect
A549 [12]
  Activity: Active
A549 [13]
  Activity: Active
[14]
  inhibition: Dose-Dependent Effect
A549 [15]
  inhibition: Active
A549 [16]
  inhibition: Active
A549 [17]
  Activity: Active
A549 [18]
  Activity: Dose-Dependent Effect
A549 [19]
  Activity: Active
A549 [20]
  Activity: Active
A549 [21]
  Activity: Active
A549 [22]
  Activity: Active
A549 [23]
  Activity: Active
A549 [24]
  Activity: Active
A549 [25]
  inhibition: Active

## COCC[n+]1c2c(n(Cc3cnccn3)c1C)C(=O)c1ccccc1C2=O.[Br-] [SEPANTRONIUM BROMIDE]
ASPC1
  IC50: 510 nM
TE-1
  IC50: 8 nM
A549 [26]
  Activity: 1.54%
A549 [27]
  viability at 0.25 µM: 4.72%
A549 [28]
  Activity: 0.57%
HepG2
  IC50: 3720 nM
NCI-H1299
  IC50: 120 nM
A549 [7]
  Activity: Active
A549 [29]
  Activity: 51.1%
143B
  IC50: 320 nM
A549 [30]
  Activity: Active
A549 [12]
  Activity: inactive
A549 [31]
  Activity: 76.4%
A549 [16]
  inhibition: Active
A549 [32]
  Activity: 24.2%
A549 [33]
  Activity: Active
A549 [19]
  Activity: Active
MCF7
  IC50: 10 nM
A549 [34]
  viability at 0.04 µM: 22.2%
BXPC-3
  IC50: 90 nM
HeLa
  IC50: 1800 nM
A549 [35]
  Activity: 11.7%
PANC-1
  IC50: 10 nM
A549 [36]
  viability at 0.1 µM: 11.3%
A549 [3]
  IC50: 10 nM
A549 [37]
  Activity: 7.79%
A549 [38]
  Activity: 86.9%
5637
  IC50: 110 nM
NCI-H460
  IC50: 100 nM
A549 [39]
  Activity: 1.65%

## Cn1c[n+](C)c2c1C(=O)c1ccccc1C2=O.[I-]
[1]
  Ratio IC50: 117
L929
  IC50: 3520 nM
A549 [4]
  IC50: 30 nM

## CCCCn1c[n+](CCCC)c2c1C(=O)c1ccccc1C2=O
[1]
  selectivity ratio: 11.8
[2]
  IC50 at 48 h: 6000 nM
A549 [3]
  IC50: 510 nM

## Cn1c[n+](C)c2c1C(=O)c1ccccc1C2=O.F[P-](F)(F)(F)(F)F
[1]
  Ratio IC50: 10.6
L929
  IC50: 1800 nM
A549 [4]
  IC50: 170 nM
